Measured values published in article PMC3639963, “A New Class of Small Molecule Inhibitor of BMP Signaling” (PLoS ONE, 2013).

Columns and labels:
Assay in all cases: Nanosyn kinase profiling
Type in all cases: biochemical
Conditions in all cases: read-out: Percentage inhibition; for inhibition at 0.1 µM: 0.1 µM inhibitor; for inhibition at 1 µM: 1 µM inhibitor
PRKG2 = molecular target: T1, PRKG2 (Homo sapiens, UniProt Q13237)
T1 construct: purchased Nanosyn (enzymatic panel); SGC in-house recombinant human kinases (DSF panel); Invitrogen (ALK1-6)
T1 sequence (Q13237 1-762): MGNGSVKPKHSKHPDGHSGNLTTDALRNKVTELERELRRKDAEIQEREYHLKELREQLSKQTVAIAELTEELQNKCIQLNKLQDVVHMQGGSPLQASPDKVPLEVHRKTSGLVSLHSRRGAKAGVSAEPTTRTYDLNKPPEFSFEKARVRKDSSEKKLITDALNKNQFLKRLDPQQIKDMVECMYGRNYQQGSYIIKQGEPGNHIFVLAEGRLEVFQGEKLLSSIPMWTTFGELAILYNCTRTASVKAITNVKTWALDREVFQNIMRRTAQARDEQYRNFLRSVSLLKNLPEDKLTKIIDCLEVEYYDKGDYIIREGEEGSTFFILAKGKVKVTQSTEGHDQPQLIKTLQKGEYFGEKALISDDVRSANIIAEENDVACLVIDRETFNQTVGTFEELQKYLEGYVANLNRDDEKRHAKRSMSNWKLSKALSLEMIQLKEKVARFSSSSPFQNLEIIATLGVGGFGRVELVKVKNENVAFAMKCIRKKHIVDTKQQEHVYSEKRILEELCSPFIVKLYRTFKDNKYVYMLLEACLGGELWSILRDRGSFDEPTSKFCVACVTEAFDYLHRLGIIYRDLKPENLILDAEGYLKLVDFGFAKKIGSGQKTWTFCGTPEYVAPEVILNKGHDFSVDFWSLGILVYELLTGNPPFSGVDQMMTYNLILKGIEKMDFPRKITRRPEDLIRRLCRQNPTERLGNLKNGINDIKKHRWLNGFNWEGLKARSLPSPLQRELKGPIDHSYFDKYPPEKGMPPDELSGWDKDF
Method in brief: (§1)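 Percent inhibition of each kinase was measured with the inhibitor at 0.1 µM and at 1 µM, as part of a 200-kinase human selectivity panel.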

BRK = molecular target: T2, BRK (Homo sapiens, UniProt Q13882)
T2 construct: purchased Nanosyn (enzymatic panel); SGC in-house recombinant human kinases (DSF panel); Invitrogen (ALK1-6)
T2 sequence (Q13882 whole entry): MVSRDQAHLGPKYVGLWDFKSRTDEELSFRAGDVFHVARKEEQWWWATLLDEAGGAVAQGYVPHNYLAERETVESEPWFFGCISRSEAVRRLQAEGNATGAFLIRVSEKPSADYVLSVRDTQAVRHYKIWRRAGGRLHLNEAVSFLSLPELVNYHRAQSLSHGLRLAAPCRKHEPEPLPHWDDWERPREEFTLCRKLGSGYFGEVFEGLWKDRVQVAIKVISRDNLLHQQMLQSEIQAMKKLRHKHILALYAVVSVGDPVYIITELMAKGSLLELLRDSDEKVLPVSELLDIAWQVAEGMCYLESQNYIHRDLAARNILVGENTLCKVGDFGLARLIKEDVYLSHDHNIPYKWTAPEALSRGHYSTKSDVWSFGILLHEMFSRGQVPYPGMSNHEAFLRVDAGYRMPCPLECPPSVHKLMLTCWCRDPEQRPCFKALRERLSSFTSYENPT
Method in brief: as §1

BTK = molecular target: T3, BTK (Homo sapiens, UniProt Q06187)
T3 construct: purchased Nanosyn (enzymatic panel); SGC in-house recombinant human kinases (DSF panel); Invitrogen (ALK1-6)
T3 sequence (Q06187 whole entry): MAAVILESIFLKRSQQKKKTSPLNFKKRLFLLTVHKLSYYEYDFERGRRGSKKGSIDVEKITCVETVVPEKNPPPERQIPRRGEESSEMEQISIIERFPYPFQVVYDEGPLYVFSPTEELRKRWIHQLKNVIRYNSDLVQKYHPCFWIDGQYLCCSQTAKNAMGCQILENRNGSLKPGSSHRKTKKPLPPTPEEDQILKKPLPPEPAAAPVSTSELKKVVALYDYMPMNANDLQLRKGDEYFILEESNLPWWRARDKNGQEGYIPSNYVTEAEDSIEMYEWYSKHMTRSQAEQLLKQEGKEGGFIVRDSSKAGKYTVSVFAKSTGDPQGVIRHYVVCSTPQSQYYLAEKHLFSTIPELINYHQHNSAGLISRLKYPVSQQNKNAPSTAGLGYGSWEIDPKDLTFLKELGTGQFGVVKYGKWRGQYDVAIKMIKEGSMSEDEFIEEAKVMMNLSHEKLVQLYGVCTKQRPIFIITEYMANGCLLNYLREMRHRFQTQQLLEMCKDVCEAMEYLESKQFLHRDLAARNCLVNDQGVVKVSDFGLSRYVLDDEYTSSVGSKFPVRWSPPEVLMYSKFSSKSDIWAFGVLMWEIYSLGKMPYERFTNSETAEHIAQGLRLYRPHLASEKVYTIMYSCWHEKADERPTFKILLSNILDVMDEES
Method in brief: as §1

CDK5/p35 = molecular target: T4, CDK5/p35 (Homo sapiens, UniProt Q00535)
T4 construct: purchased Nanosyn (enzymatic panel); SGC in-house recombinant human kinases (DSF panel); Invitrogen (ALK1-6)
T4 sequence (Q00535 whole entry): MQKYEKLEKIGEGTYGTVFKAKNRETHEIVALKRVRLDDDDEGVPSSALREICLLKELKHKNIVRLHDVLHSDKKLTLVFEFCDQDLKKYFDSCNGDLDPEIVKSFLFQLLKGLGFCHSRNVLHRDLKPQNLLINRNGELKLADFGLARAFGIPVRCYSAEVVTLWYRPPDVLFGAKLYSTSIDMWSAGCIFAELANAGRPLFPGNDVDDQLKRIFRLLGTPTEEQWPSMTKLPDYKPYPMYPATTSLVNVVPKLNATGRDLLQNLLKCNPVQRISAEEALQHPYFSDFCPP
T4 sequence (Q15078 whole entry partner): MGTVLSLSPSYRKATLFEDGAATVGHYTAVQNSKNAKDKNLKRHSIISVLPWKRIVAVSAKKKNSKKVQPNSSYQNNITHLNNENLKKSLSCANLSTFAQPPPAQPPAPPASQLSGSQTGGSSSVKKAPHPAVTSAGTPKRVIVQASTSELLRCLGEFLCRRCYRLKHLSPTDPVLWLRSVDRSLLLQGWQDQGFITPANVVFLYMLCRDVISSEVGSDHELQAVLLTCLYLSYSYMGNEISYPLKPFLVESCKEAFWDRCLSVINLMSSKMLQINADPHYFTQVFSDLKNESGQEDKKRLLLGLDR
Method in brief: as §1

KIT = molecular target: T5, KIT (Homo sapiens, UniProt P10721)
T5 construct: purchased Nanosyn (enzymatic panel); SGC in-house recombinant human kinases (DSF panel); Invitrogen (ALK1-6)
T5 sequence (P10721 26-976): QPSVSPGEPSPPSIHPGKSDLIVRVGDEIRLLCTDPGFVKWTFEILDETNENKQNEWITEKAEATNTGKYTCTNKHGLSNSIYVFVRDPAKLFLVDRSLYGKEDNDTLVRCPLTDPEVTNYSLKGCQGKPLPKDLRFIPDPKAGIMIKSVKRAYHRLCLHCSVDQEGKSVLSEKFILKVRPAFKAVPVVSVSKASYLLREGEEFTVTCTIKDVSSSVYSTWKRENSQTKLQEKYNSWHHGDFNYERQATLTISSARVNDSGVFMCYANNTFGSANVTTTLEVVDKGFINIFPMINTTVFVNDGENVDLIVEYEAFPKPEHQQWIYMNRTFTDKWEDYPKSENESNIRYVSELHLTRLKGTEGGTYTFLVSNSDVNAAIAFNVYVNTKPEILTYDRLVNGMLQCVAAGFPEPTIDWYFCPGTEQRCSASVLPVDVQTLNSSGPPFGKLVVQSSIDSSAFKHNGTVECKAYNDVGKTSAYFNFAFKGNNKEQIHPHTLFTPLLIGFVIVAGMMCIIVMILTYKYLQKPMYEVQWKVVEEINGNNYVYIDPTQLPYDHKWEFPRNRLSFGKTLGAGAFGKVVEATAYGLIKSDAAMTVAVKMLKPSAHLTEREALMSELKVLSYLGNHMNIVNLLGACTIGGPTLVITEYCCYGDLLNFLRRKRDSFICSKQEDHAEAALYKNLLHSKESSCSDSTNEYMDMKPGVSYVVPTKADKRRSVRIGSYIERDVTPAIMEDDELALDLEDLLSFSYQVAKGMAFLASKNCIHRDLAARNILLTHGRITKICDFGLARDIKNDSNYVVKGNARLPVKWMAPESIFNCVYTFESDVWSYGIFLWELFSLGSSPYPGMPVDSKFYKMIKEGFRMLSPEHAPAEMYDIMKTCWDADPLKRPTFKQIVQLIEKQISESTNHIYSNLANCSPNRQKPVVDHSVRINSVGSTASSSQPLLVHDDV
Method in brief: as §1

MAP4K2 = molecular target: T6, MAP4K2 (Homo sapiens, UniProt Q12851)
T6 construct: purchased Nanosyn (enzymatic panel); SGC in-house recombinant human kinases (DSF panel); Invitrogen (ALK1-6)
T6 sequence (Q12851 1-820): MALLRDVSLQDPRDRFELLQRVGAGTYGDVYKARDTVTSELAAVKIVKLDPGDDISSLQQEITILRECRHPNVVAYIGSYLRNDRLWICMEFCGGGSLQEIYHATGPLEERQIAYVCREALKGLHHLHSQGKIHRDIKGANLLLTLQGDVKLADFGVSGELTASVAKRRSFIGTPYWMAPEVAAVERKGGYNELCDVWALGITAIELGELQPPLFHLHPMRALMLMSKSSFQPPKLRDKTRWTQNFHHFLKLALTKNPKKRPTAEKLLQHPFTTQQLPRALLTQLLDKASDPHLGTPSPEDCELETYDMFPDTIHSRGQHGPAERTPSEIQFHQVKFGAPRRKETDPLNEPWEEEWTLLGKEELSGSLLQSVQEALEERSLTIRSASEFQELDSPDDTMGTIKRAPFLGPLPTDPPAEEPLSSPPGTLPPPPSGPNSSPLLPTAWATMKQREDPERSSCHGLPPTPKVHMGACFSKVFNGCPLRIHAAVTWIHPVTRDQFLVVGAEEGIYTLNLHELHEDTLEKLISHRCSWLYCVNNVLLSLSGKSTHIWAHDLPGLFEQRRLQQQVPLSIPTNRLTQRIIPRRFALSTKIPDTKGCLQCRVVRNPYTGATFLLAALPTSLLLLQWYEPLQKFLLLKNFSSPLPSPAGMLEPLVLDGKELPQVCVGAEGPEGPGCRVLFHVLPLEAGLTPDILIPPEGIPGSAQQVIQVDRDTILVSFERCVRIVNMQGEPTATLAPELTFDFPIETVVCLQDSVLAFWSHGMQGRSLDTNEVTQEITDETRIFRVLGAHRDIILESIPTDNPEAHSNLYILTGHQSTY
Method in brief: as §1

SGK2 = molecular target: T7, SGK2 (Homo sapiens, UniProt Q9HBY8)
T7 construct: purchased Nanosyn (enzymatic panel); SGC in-house recombinant human kinases (DSF panel); Invitrogen (ALK1-6)
T7 sequence (Q9HBY8 1-367): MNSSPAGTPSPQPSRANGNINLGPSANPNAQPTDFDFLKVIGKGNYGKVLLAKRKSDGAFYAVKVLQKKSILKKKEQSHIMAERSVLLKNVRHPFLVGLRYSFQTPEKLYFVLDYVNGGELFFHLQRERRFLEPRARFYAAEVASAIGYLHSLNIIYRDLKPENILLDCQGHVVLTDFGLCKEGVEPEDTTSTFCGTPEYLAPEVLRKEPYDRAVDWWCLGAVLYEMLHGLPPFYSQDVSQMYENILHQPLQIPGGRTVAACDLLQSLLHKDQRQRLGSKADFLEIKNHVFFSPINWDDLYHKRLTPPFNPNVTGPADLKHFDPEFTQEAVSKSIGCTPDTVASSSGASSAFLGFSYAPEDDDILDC
Method in brief: as §1

NEK7 = molecular target: T8, NEK7 (Homo sapiens, UniProt Q8TDX7)
T8 construct: purchased Nanosyn (enzymatic panel); SGC in-house recombinant human kinases (DSF panel); Invitrogen (ALK1-6)
T8 sequence (Q8TDX7 whole entry): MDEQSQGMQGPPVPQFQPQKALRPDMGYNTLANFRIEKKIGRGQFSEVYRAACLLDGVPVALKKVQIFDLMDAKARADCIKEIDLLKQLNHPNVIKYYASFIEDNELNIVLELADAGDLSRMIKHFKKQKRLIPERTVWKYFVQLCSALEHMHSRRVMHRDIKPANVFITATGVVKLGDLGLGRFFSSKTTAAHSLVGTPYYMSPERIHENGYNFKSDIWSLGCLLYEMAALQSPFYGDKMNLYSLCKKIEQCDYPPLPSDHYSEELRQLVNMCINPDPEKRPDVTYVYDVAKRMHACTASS
Method in brief: as §1

PKA = molecular target: T9, PKA (Homo sapiens, UniProt P17612)
T9 construct: purchased Nanosyn (enzymatic panel); SGC in-house recombinant human kinases (DSF panel); Invitrogen (ALK1-6)
Method in brief: as §1

FGFR1 = molecular target: T10, FGFR1 (Homo sapiens, UniProt P11362)
T10 construct: purchased Nanosyn (enzymatic panel); SGC in-house recombinant human kinases (DSF panel); Invitrogen (ALK1-6)
T10 sequence (P11362 22-822): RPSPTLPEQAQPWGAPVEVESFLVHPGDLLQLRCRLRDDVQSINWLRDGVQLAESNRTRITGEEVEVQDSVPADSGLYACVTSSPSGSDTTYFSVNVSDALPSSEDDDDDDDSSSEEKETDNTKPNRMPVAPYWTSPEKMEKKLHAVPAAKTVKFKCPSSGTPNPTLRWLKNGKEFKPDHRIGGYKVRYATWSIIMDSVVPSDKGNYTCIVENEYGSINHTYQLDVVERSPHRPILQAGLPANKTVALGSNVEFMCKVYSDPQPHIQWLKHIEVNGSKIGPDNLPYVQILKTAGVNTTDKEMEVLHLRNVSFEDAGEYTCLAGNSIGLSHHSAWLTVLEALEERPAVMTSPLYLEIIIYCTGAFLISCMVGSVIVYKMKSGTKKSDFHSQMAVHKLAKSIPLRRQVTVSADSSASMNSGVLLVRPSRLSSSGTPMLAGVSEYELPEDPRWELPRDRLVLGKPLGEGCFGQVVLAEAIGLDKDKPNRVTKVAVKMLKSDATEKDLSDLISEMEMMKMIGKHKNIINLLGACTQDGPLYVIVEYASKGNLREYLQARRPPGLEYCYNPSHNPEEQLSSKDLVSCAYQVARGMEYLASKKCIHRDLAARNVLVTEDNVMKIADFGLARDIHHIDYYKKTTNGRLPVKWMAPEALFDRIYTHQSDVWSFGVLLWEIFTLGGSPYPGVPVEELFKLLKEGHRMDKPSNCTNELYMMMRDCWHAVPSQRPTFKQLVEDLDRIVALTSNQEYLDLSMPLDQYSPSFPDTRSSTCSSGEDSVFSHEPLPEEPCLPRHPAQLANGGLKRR
Method in brief: as §1

CK1α = molecular target: T11, CK1α (Homo sapiens, UniProt P48729)
T11 construct: purchased Nanosyn (enzymatic panel); SGC in-house recombinant human kinases (DSF panel); Invitrogen (ALK1-6)
T11 sequence (P48729 whole entry): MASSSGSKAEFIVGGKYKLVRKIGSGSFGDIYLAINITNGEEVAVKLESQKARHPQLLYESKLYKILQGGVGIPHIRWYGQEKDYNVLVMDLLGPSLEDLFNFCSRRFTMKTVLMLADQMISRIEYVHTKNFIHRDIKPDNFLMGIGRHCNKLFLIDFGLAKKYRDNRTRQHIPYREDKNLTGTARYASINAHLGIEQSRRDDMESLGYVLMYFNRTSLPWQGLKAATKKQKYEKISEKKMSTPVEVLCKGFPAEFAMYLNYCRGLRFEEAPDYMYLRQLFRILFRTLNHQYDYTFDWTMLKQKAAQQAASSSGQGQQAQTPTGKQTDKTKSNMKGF
Method in brief: as §1

| Structure (SMILES) | inhibition at 0.1 µM (PRKG2) [%] | inhibition at 1 µM (PRKG2) [%] | inhibition at 0.1 µM (BRK) [%] | inhibition at 1 µM (BRK) [%] | inhibition at 0.1 µM (BTK) [%] | inhibition at 1 µM (BTK) [%] | inhibition at 0.1 µM (CDK5/p35) [%] | inhibition at 1 µM (CDK5/p35) [%] | inhibition at 0.1 µM (KIT) [%] | inhibition at 1 µM (KIT) [%] | inhibition at 0.1 µM (MAP4K2) [%] | inhibition at 1 µM (MAP4K2) [%] | inhibition at 0.1 µM (SGK2) [%] | inhibition at 1 µM (SGK2) [%] | inhibition at 0.1 µM (NEK7) [%] | inhibition at 1 µM (NEK7) [%] | inhibition at 0.1 µM (PKA) [%] | inhibition at 1 µM (PKA) [%] | inhibition at 0.1 µM (FGFR1) [%] | inhibition at 1 µM (FGFR1) [%] | other results |
| --- | --- | --- | --- | --- | --- | --- | --- | --- | --- | --- | --- | --- | --- | --- | --- | --- | --- | --- | --- | --- | --- |
| COc1cc(-c2cc(-c3cccc(O)c3)cnc2N)cc(OC)c1OC [K02288, 3-[6-amino-5-(3,4,5-trimethoxy-phenyl)-pyridin-3-yl]-phenol] | 1 | 5 | 13 | 66 | 0.5 | 6.6 | 0.3 | 1.9 | 4 | 9.2 | 18 | 53 | 2.7 | 1.3 | 0.2 | -3 | 0.3 | 6.1 | -1 | -3 | inhibition at 0.1 µM (CK1α): 0%; inhibition at 1 µM (CK1α): 7.2% |
| c1ccc2c(-c3cnn4cc(-c5ccc(N6CCNCC6)cc5)cnc34)ccnc2c1 [LDN-193189] | 1.7 | 9.3 | 13 | 57 | 0.5 | 1.8 | 1.4 | 8.5 | 7 | 41 | 21 | 65 | 2.3 | 0.2 | 7.9 | 1.7 | 1.4 | 2.1 | 3.4 | 19 | inhibition at 0.1 µM (CK1α): 14%; inhibition at 1 µM (CK1α): 56% |
